In patent US8361994B2, “Primary amine diazeniumdiolate heterocyclic derivatives” (Merck Sharp & Dohme Corp, priority 2011, dated 2013):

Test system: Male beagle dogs
Assay: canine telemetry protocol, blood pressure reduction efficacy
Assay type: in vivo
Details: change from baseline, 3 mg/kg, oral gavage; for ΔPP (mm Hg) 1-6 h / ΔPP (mm Hg) 6-12 h / ΔPP (mm Hg) 12-18 h: pulse pressure; for ΔSBP (mm Hg) 1-6 h / ΔSBP (mm Hg) 6-12 h / ΔSBP (mm Hg) 12-18 h: systolic blood pressure
Experimental: Compounds of the invention were evaluated for blood pressure reduction efficacy using the following canine telemetry protocol described below.
Male beagle dogs (approximately 1-3 years old) with a body weight of between 10 and 16 kg were surgically implanted with DSI radiotelemetry devices (model: TL11M2-D70-PCT). Briefly, under an inhalant anesthesia, isoflurane/oxygen mixture (1-3.5%/to effect), the body of the telemetry device was positioned and secured intra-abdominally. Subsequently, the arterial catheter of the telemetry device was passed subcutaneously to the inguinal area and introduced into the femoral artery and advanced to the level of the descending aorta. The catheter was secured with 2-0 silk ligatures. The muscle and underlying fascia was closed over the catheter using absorbable suture and the skin was closed using non-absorbable suture. The animals were allowed a minimum recovery period of 2 weeks between surgery and the evaluation of test compounds.
Compound evaluation consisted of a 3 day paradigm at a 3 mg/kg dose. On the first day, no compounds were administered during a 24 hour period of baseline data collection. Blood pressure and heart rate data were collected continuously for one minute periods at 10 minute intervals. On the days of compound administration half the animals received test article with the other half receiving the vehicle used for compound formulation. All test materials were administered by oral gavage in a volume of 1 mL/kg. Data are expressed either as raw values (mm Hg or beats per minute) or as the change from baseline (average value for about 12 hours in low activity period prior to dosing). Change is SBP (systolic blood pressure) and PP (pulse pressure) over time is shown below: […]

Row | SMILES | ΔPP (mm Hg) 1-6 h [mm Hg] | ΔPP (mm Hg) 6-12 h [mm Hg] | ΔPP (mm Hg) 12-18 h [mm Hg] | ΔSBP (mm Hg) 1-6 h [mm Hg] | ΔSBP (mm Hg) 6-12 h [mm Hg] | ΔSBP (mm Hg) 12-18 h [mm Hg]
1 | CC(C)(C)NC(=O)N1CC[C@@H](O/N=[N+](\[O-])NC(C)(C)C)C1 [Example 9, O^2-[(3R)-1-(tert-butylcarbamoyl)pyrrolidin-3-yl]1-(N-tert-butylamino)diazen-1-ium-1,2-diolate] | −23 | −27 | −11 | −24 | −25 | −18
2 | Cc1cccc(N2CC[C@@H](O/N=[N+](\[O-])NC(C)(C)C)C2=O)c1 [Example 36, O^2-[(3R)-1-(3-methylphenyl)-2-oxopyrrolidin-3-yl]1-(N-tert-butylamino)diazen-1-ium-1,2-diolate] | −9 | −7 | −4 | −23 | −17 | −14
3 | CC(C)(C)N/[N+]([O-])=N/OC1CCN(c2ccc(C#N)cn2)CC1 [Example 22, O^2-[1-(5-cyanopyridin-2-yl)piperidin-4-yl]1-(N-tert-butylamino)diazen-1-ium-1,2-diolate] | −15 | −17 | −16 | −19 | −18 | −21
4 | CC(C)(C)N/[N+]([O-])=N/O[C@@H]1CCN(c2cccc(C#N)c2)C1 [Example 32, O^2-[(3R)-1-(3-cyanophenyl)pyrrolidin-3-yl]1-(N-tert-butylamino)diazen-1-ium-1,2-diolate] | −7 | −12 | −13 | −10 | −17 | −17
